The values below come from ChEMBL document CHEMBL1909046, “DrugMatrix in vitro pharmacology data”.

Assay [1] addresses T1, Alpha-2C adrenergic receptor (Homo sapiens, UniProt P18825).
T1 sequence (P18825 whole entry): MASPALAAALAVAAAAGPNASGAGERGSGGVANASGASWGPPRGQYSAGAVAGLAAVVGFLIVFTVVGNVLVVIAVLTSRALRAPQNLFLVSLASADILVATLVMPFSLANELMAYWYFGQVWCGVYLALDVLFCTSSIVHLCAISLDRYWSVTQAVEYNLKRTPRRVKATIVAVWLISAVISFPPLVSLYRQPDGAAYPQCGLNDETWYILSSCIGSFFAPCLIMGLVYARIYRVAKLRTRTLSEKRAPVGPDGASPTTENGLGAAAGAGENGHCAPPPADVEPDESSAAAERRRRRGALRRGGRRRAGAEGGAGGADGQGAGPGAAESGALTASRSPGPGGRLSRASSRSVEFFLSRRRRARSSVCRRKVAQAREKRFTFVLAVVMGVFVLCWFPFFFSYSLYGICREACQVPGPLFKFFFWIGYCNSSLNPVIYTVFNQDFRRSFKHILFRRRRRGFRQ
Nature of the assay: DRUGMATRIX: Adrenergic Alpha-2C radioligand binding (ligand: [3H] MK-912). It is filed as cell membranes, Sf9, Membrane.

Assay [2] has as its target Beta-3 adrenergic receptor (Homo sapiens, UniProt P13945). Kind of assay: DRUGMATRIX: Adrenergic beta3 radioligand binding (ligand: [125I] Cyanopindolol). It is filed as cell membranes, HEK293, Membrane. The following applies: Not Active = under 50% inhibition at 10 µM.
Assay [3] in a line: DRUGMATRIX: Calcium Channel Type L, Benzothiazepine radioligand binding (ligand: [3H] Diltiazem). Type of assay: cell membranes, Rattus norvegicus, Wistar, Brain, Membrane. The settings on record: Not Active = under 50% inhibition at 10 µM.
Another assay concerns the target D(1A) dopamine receptor (Homo sapiens, UniProt P21728). Kind of assay: DRUGMATRIX: Dopamine D1 radioligand binding (ligand: [3H] SCH-23390). It is filed as cell membranes, CHO, Membrane. The settings on record: Not Active = under 50% inhibition at 10 µM.

As a reminder, the IC50 is the midpoint of a concentration-inhibition curve. One may read the Ki as a measure of affinity in units of concentration, obtained from inhibition or displacement.

Sequence of Beta-3 adrenergic receptor (P13945 whole entry): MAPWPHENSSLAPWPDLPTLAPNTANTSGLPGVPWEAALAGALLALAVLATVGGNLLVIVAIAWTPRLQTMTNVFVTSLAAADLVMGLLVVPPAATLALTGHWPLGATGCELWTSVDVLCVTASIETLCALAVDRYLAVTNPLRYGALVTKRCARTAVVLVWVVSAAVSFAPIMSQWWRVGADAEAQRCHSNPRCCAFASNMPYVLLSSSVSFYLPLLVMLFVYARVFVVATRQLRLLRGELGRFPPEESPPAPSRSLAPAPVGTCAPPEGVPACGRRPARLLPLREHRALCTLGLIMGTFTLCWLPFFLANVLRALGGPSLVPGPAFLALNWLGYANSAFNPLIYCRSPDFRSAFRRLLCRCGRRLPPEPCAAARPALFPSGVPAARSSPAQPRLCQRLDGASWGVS
Sequence of D(1A) dopamine receptor (P21728 whole entry): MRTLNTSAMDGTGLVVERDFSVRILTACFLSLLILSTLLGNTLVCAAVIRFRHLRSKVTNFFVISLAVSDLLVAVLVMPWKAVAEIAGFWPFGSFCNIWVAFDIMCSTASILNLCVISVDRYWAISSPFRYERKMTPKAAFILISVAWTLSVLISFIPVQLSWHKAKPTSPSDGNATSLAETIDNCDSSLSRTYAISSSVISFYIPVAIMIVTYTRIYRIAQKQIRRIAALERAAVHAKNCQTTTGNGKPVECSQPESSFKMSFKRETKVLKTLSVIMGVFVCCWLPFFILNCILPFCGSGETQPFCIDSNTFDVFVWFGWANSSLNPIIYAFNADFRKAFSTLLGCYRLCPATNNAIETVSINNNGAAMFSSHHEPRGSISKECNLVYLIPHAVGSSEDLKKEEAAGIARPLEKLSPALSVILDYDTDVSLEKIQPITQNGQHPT

Regarding `CC(C)CN(C[C@@H](O)[C@H](Cc1ccccc1)NC(=O)O[C@H]1CCOC1)S(=O)(=O)c1ccc(N)cc1`, the IC50 result (in assay [1] (sf9); in assay [2] (hek293); in assay [3]; on D(1A) dopamine receptor (cho)) was “Not Active” each time. The Ki entry in assay [3] is listed as “Not Active”.
In the case of `c1ccc(Nc2ccc(Nc3ccccc3)cc2)cc1`, the IC50 entry (in assay [1] (sf9); in assay [2] (hek293); in assay [3]; on D(1A) dopamine receptor (cho)) was “Not Active” each time. The Ki entry in assay [3] is “Not Active”.
On to `COc1cc2c3cc1Oc1cc(ccc1O)C[C@@H]1c4c(cc(OC)c(O)c4Oc4ccc(cc4)C[C@@H]3N(C)CC2)CC[N+]1(C)C.[Cl-]`, for which the IC50 result (in assay [1] (sf9); in assay [2] (hek293); in assay [3]; at D(1A) dopamine receptor (cho)) was “Not Active” each time. Besides, the Ki entry in assay [3] was “Not Active”.
`NC(=O)N1c2ccccc2CCc2ccccc21`: the IC50 result (in assay [1] (sf9); in assay [2] (hek293); in assay [3]; at D(1A) dopamine receptor (cho)) was “Not Active” in each case. Moreover, the Ki entry in assay [3] is recorded as “Not Active”.
With `O=C1CC[C@@H](N2C(=O)c3ccccc3C2=O)C(=O)N1`, the IC50 entry (in assay [1] (sf9); in assay [2] (hek293); in assay [3]; on D(1A) dopamine receptor (cho)) was “Not Active” in each case. Further, the Ki entry in assay [3] is “Not Active”.
On to `Cc1onc(O)c1CC(N)C(=O)O` (racemic) [(R,S)-AMPA], for which the IC50 result (in assay [1] (sf9); in assay [2] (hek293); in assay [3]; on D(1A) dopamine receptor (cho)) was “Not Active” each time. Besides, the inhibitory constant (Ki) result in assay [3] is “Not Active”.
Regarding `Cc1ccc2cc3c(ccc4ccccc43)c3c2c1CC3` [3-METHYLCHOLANTHRENE], the IC50 result (in assay [1] (sf9); in assay [2] (hek293); in assay [3]; at D(1A) dopamine receptor (cho)) was “Not Active” each time. Moreover, in assay [3], the Ki entry is recorded as “Not Active”.
With `CC[C@@]1(O)C[C@H](O[C@H]2C[C@H](N(C)C)[C@H](O[C@H]3C[C@H](O)[C@H](O[C@H]4CCC(=O)[C@H](C)O4)[C@H](C)O3)[C@H](C)O2)c2c(cc3c(c2O)C(=O)c2c(O)cccc2C3=O)[C@H]1C(=O)OC` [ACLARUBICIN], the half-inhibitory concentration (IC50) entry (in assay [1] (sf9); in assay [2] (hek293); in assay [3]; at D(1A) dopamine receptor (cho)) was “Not Active” throughout. Further, the Ki result in assay [3] is given as “Not Active”.
As for `Nc1nc2c(ncn2COCCO)c(=O)[nH]1` [ACYCLOVIR], the 50% inhibitory concentration (IC50) entry (in assay [1] (sf9); in assay [2] (hek293); in assay [3]; on D(1A) dopamine receptor (cho)) was “Not Active” throughout. Further, the Ki result in assay [3] was “Not Active”.
Consider `Cc1c(C)c2c(c(C)c1O)CC[C@@](C)(CCC[C@H](C)CCC[C@H](C)CCCC(C)C)O2` [ALPHA-TOCOPHEROL], for which the IC50 result (in assay [1] (sf9); in assay [2] (hek293); in assay [3]; on D(1A) dopamine receptor (cho)) was “Not Active” each time. The Ki entry in assay [3] is on record as “Not Active”.
As to `CN(C)c1nc(N(C)C)nc(N(C)C)n1` [ALTRETAMINE], the IC50 result (in assay [1] (sf9); in assay [2] (hek293); in assay [3]; at D(1A) dopamine receptor (cho)) was “Not Active” each time. Besides, in assay [3], the Ki result is “Not Active”.
Turning to `Nc1c(Br)cc(Br)cc1CN[C@H]1CC[C@H](O)CC1` [AMBROXOL], the half-inhibitory concentration (IC50) entry (in assay [1] (sf9); in assay [2] (hek293); in assay [3]; at D(1A) dopamine receptor (cho)) was “Not Active” in each case. Further, the Ki entry in assay [3] is reported as “Not Active”.
As to `NCCCCCC(=O)O` [AMINOCAPROIC ACID], the IC50 entry (in assay [1] (sf9); in assay [2] (hek293); in assay [3]; at D(1A) dopamine receptor (cho)) was “Not Active” in each case. Further, the Ki entry in assay [3] is “Not Active”.
For the compound `CCC1(c2ccc(N)cc2)CCC(=O)NC1=O` (stereo unspecified) [AMINOGLUTETHIMIDE], the IC50 entry (in assay [1] (sf9); in assay [2] (hek293); in assay [3]; at D(1A) dopamine receptor (cho)) was “Not Active” each time. For the same compound, the Ki entry in assay [3] is on record as “Not Active”.
For `Cc1ccc(/N=C/N(C)/C=N/c2ccc(C)cc2C)c(C)c1` [AMITRAZ], the IC50 result (in assay [1] (sf9); in assay [2] (hek293); in assay [3]; on D(1A) dopamine receptor (cho)) was “Not Active” each time. Moreover, in assay [3], the Ki entry is given as “Not Active”.
Regarding `CCOC(=O)C1=C(COCCN)NC(C)=C(C(=O)OC)C1c1ccccc1Cl` (stereo unspecified) [AMLODIPINE], the IC50 entry in assay [2] (hek293) was “Not Active”; in assay [3] (read-out: IC50), 0.101 µM; at D(1A) dopamine receptor (cho), “Not Active”. Besides, in assay [3] (read-out: Ki), the inhibition constant Ki stood at 0.09 µM.
Regarding `COc1ccc(C[C@H]2NC[C@H](O)[C@H]2OC(C)=O)cc1` [ANISOMYCIN], the IC50 result (in assay [1] (sf9); in assay [2] (hek293); in assay [3]; on D(1A) dopamine receptor (cho)) was “Not Active” each time. Moreover, the Ki entry (in assay [1] (sf9); in assay [2] (hek293); in assay [3]; at D(1A) dopamine receptor (cho)) was “Not Active” throughout.
As for `Nc1ncn([C@@H]2O[C@H](CO)[C@@H](O)[C@H]2O)c(=O)n1` [AZACITIDINE], the IC50 entry (in assay [1] (sf9); in assay [2] (hek293); in assay [3]; on D(1A) dopamine receptor (cho)) was “Not Active” each time. Further, the Ki result in assay [3] is on record as “Not Active”.
Regarding `CN(C)C(=O)Oc1cc(OC(=O)N(C)C)cc(C(O)CNC(C)(C)C)c1` (stereo unspecified) [BAMBUTEROL], the IC50 result (in assay [1] (sf9); in assay [2] (hek293); in assay [3]; on D(1A) dopamine receptor (cho)) was “Not Active” each time. Besides, the Ki result in assay [3] is on record as “Not Active”.
With `c1ccc2c(c1)c1cccc3ccc4cccc2c4c31` [BENZO[E]PYRENE], the IC50 entry (in assay [1] (sf9); in assay [2] (hek293); in assay [3]; at D(1A) dopamine receptor (cho)) was “Not Active” each time. Further, the Ki entry in assay [3] was “Not Active”.
Regarding `CNCCc1ccccn1` [BETAHISTINE], the IC50 result (in assay [1] (sf9); in assay [2] (hek293); in assay [3]; at D(1A) dopamine receptor (cho)) was “Not Active” in each case. Besides, the Ki entry in assay [3] is listed as “Not Active”.
For `CC(C)C(Br)C(=O)NC(N)=O` (stereo unspecified) [BROMISOVALUM], the IC50 entry (in assay [1] (sf9); in assay [2] (hek293); in assay [3]; at D(1A) dopamine receptor (cho)) was “Not Active” throughout. For the same compound, the Ki entry in assay [3] is “Not Active”.
With `CCCC1O[C@@H]2C[C@H]3[C@@H]4CCC5=CC(=O)C=C[C@]5(C)[C@H]4[C@@H](O)C[C@]3(C)[C@]2(C(=O)CO)O1` (stereo partly specified) [BUDESONIDE], the IC50 result (in assay [1] (sf9); in assay [2] (hek293); in assay [3]; on D(1A) dopamine receptor (cho)) was “Not Active” each time. Also, in assay [3], the Ki entry is on record as “Not Active”.
As for `CC(NC(C)(C)C)C(=O)c1cccc(Cl)c1` (stereo unspecified) [BUPROPION], the IC50 result (in assay [1] (sf9); in assay [2] (hek293); in assay [3]; on D(1A) dopamine receptor (cho)) was “Not Active” throughout. In addition, the Ki result in assay [3] is “Not Active”.
Turning to `CN(Cc1ccc(C(C)(C)C)cc1)Cc1cccc2ccccc12` [BUTENAFINE], the IC50 result (in assay [1] (sf9); in assay [2] (hek293); in assay [3]; at D(1A) dopamine receptor (cho)) was “Not Active” each time. Further, in assay [3], the Ki entry is “Not Active”.
`C[C@H](CS)C(=O)N1CCC[C@H]1C(=O)O` [CAPTOPRIL]: the IC50 result (in assay [1] (sf9); in assay [2] (hek293); in assay [3]; on D(1A) dopamine receptor (cho)) was “Not Active” throughout. Moreover, the Ki result in assay [3] is recorded as “Not Active”.
For the compound `Cc1ccc(-c2cc(C(F)(F)F)nn2-c2ccc(S(N)(=O)=O)cc2)cc1` [CELECOXIB], the IC50 result in assay [1] (sf9) is “Not Active”; in assay [2] (read-out: IC50), 16.1 µM; in assay [3] it was “Not Active”; at D(1A) dopamine receptor (read-out: IC50), 28 µM. The Ki in assay [2] (read-out: Ki) is 12.1 µM; in assay [3] it was “Not Active”; on D(1A) dopamine receptor (read-out: Ki), 14 µM.
Turning to `O=C(O)CCCc1ccc(N(CCCl)CCCl)cc1` [CHLORAMBUCIL], the concentration for half-maximal inhibition (IC50) entry (in assay [1] (sf9); in assay [2] (hek293); in assay [3]; at D(1A) dopamine receptor (cho)) was “Not Active” throughout. Besides, the Ki result in assay [3] is “Not Active”.
Regarding `CN(C)CCCN1c2ccccc2Sc2ccc(Cl)cc21` [CHLORPROMAZINE], the IC50 result was “Not Active” in assay [2] (hek293) and 3.21 µM in assay [3] (read-out: IC50). For the same compound, in assay [3] (read-out: Ki), the Ki came out at 2.86 µM.
On to `C[C@H](CCC(=O)O)[C@H]1CC[C@H]2[C@@H]3[C@H](O)C[C@@H]4C[C@H](O)CC[C@]4(C)[C@H]3C[C@H](O)[C@]12C` [CHOLIC ACID], for which the IC50 result (in assay [1] (sf9); in assay [2] (hek293); in assay [3]; on D(1A) dopamine receptor (cho)) was “Not Active” each time. Also, the Ki result in assay [3] is given as “Not Active”.
On to `CCCN1C[C@H](CSC)C[C@@H]2c3cccc4[nH]cc(c34)C[C@H]21` [PERGOLIDE], for which the figures for the IC50 in assay [1], in assay [2] (hek293) and in assay [3] (read-out: IC50) were 1.41 µM, “Not Active” and 3.3 µM, respectively. The Ki in assay [1] (read-out: Ki) was determined as 0.205 µM; in assay [3] (read-out: Ki), 2.93 µM.
Take `Cc1ccc(N(CC2=NCCN2)c2cccc(O)c2)cc1` [PHENTOLAMINE]: the IC50 entry (in assay [2] (hek293); in assay [3]; at D(1A) dopamine receptor (cho)) was “Not Active” in each case. Moreover, the Ki entry in assay [3] was “Not Active”.
